Molecular target: Multidrug resistance-associated protein 1 (Homo sapiens, UniProt P33527)
Experiment: TP_TRANSPORTER: uptake in membrane vesicle from MRP1-expressing HeLa cells
Format: functional, cell membranes

Multidrug resistance-associated protein 1, sequence (P33527 whole entry): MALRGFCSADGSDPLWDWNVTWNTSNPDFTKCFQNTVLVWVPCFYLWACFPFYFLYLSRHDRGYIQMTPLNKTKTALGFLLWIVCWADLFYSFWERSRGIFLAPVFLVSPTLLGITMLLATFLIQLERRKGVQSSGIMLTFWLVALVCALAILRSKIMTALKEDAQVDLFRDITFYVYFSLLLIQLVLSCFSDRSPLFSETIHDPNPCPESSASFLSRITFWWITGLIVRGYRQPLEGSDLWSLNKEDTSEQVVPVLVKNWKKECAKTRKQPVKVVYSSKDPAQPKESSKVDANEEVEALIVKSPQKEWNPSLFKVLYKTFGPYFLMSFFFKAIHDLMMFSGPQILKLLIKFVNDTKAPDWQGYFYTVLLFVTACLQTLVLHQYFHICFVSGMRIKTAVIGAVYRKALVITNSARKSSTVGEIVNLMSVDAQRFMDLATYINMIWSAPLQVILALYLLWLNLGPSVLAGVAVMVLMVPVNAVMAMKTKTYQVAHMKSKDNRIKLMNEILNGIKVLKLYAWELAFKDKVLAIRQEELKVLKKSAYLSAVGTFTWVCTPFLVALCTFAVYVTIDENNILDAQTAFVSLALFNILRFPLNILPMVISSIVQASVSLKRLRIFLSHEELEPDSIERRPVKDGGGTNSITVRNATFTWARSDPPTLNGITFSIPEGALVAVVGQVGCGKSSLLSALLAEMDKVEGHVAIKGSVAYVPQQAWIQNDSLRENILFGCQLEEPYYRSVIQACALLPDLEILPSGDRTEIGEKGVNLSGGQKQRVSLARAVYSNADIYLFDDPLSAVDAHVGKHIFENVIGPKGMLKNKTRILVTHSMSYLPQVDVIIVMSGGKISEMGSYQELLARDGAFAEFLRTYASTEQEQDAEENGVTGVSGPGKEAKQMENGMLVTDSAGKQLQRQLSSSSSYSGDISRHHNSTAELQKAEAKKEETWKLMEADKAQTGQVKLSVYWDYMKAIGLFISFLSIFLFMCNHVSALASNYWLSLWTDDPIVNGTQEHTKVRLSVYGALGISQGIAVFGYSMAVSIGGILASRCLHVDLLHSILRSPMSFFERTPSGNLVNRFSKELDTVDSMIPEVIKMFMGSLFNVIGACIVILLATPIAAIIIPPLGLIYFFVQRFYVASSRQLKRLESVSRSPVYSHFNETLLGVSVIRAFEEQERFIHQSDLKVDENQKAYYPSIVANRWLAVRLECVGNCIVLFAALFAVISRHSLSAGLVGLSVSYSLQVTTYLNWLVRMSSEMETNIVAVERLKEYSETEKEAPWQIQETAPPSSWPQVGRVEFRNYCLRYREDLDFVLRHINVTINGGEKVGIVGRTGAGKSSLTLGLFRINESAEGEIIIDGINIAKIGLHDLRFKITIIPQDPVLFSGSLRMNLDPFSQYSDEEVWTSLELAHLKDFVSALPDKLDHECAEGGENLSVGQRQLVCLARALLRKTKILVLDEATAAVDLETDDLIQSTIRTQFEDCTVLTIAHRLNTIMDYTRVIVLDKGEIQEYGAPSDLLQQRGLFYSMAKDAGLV

| Compound | Activity |
| --- | --- |
| C[C@H](CCC(=O)O)[C@H]1CC[C@H]2[C@@H]3C[C@H](O[C@@H]4O[C@H](C(=O)O)[C@@H](O)[C@H](O)[C@H]4O)[C@@H]4C[C@H](O)CC[C@]4(C)[C@H]3CC[C@]12C [6alpha-Glucuronosylhyodeoxycholate] | substrate [+] |
| COc1cc([C@@H]2c3cc4c(cc3[C@@H](O[C@@H]3O[C@@H]5CO[C@@H](C)O[C@H]5[C@H](O)[C@H]3O)[C@H]3COC(=O)[C@H]23)OCO4)cc(OC)c1O[C@@H]1O[C@H](C(=O)O)[C@@H](O)[C@H](O)[C@H]1O [ETOPOSIDE GLUCURONIDE] | substrate [+] |

The remaining lines, values ahead:

| Activity | Compound |
| --- | --- |
| substrate [+] | CCCCC/C=C\C\C=C/C=C/C=C/[C@@H](SC[C@H](NC(C)=O)C(=O)O)[C@@H](O)CCCC(=O)O |
| substrate [+] | CCCCC/C=C\C\C=C/C=C/C=C/[C@@H](SC[C@H](N)C(=O)O)[C@@H](O)CCCC(=O)O [LEUKOTRIEN E4] |
| substrate [+] | CCCCC/C=C\C\C=C/C=C/C=C/[C@@H](SC[C@H](N)C(=O)NCC(=O)O)[C@@H](O)CCCC(=O)O [LEUKOTRIENE D4] |
